Assay results reported in the CheMixHub viscosity set.

Assay: xn = mol fraction of the nth substance listed

C=Cc1ccccc1 + CN(C)C=O
viscosity [mPa·s], 101.33 kPa
Conditions | x1 = 0.109 | x1 = 0.2013 | x1 = 0.2959 | x1 = 0.3998 | x1 = 0.5052 | x1 = 0.6012 | x1 = 0.6979 | x1 = 0.8049 | x1 = 0.8976
298.15 K | 0.831 | 0.845 | 0.854 | 0.858 | 0.86 | 0.856 | 0.847 | 0.825 | 0.794
303.15 K | 0.78 | 0.79 | 0.801 | 0.804 | 0.802 | 0.798 | 0.79 | 0.768 | 0.735
308.15 K | 0.732 | 0.742 | 0.749 | 0.75 | 0.749 | 0.746 | 0.739 | 0.717 | 0.685

BrC(Br)Br + N#CCc1ccccc1
298.15 K, 101 kPa
Conditions | viscosity [mPa·s]
x1 = 0.1271 | 1.937
x1 = 0.2393 | 2
x1 = 0.3546 | 2.087
x1 = 0.5011 | 2.112
x1 = 0.601 | 2.117
x1 = 0.6932 | 2.08
x1 = 0.7999 | 2.027
x1 = 0.889 | 1.966

C=Cc1ccccc1 + CO
viscosity [mPa·s], 101.33 kPa
Conditions | x1 = 0.1005 | x1 = 0.192 | x1 = 0.3007 | x1 = 0.4018 | x1 = 0.4981 | x1 = 0.5994 | x1 = 0.7011 | x1 = 0.8049 | x1 = 0.8981
298.15 K | 0.591 | 0.623 | 0.65 | 0.669 | 0.679 | 0.686 | 0.692 | 0.701 | 0.706
303.15 K | 0.55 | 0.583 | 0.608 | 0.618 | 0.634 | 0.642 | 0.646 | 0.655 | 0.661
308.15 K | 0.515 | 0.543 | 0.569 | 0.587 | 0.594 | 0.598 | 0.602 | 0.61 | 0.617

CCCCCCCCO + CCCCCCCC
298.15 K, 101.33 kPa
Conditions | viscosity [mPa·s]
x1 = 0.0015 | 0.491
x2 = 0.0566 | 6.369
x2 = 0.1294 | 5.058
x2 = 0.2321 | 3.637
x2 = 0.353 | 2.469
x2 = 0.4724 | 1.705
x2 = 0.527 | 1.452
x2 = 0.6297 | 1.094
x2 = 0.778 | 0.764
x2 = 0.8294 | 0.683
x2 = 0.9163 | 0.572

CC(=O)c1ccc(Cl)cc1 + C=CC#N
308.15 K, 101 kPa
Conditions | viscosity [mPa·s]
x1 = 0.0547 | 0.3753
x1 = 0.1146 | 0.4278
x1 = 0.1793 | 0.4934
x1 = 0.2555 | 0.5751
x1 = 0.3377 | 0.6821
x1 = 0.4269 | 0.819
x1 = 0.5441 | 1.026
x1 = 0.6719 | 1.303
x1 = 0.8213 | 1.697

BrC(Br)Br + Brc1ccccc1
viscosity [mPa·s]
Conditions | x1 = 0.1693 | x1 = 0.1837 | x1 = 0.3354 | x1 = 0.3369 | x1 = 0.5411 | x1 = 0.5417 | x1 = 0.6863 | x1 = 0.6869 | x1 = 0.8606 | x1 = 0.871
298 K, 101.3 kPa | – | 1.207 | – | 1.333 | – | 1.51 | – | 1.627 | 1.769 | –
318 K, 101.33 kPa | 0.9504 | – | 1.051 | – | 1.179 | – | 1.272 | – | – | 1.396

CC(C)(C)N + Cc1ccccc1
303.15 K, 101 kPa
Conditions | viscosity [mPa·s]
x2 = 0.1549 | 0.4385
x2 = 0.2226 | 0.4405
x2 = 0.3039 | 0.4431
x2 = 0.3981 | 0.4489
x2 = 0.522 | 0.458
x2 = 0.6221 | 0.4693
x2 = 0.7184 | 0.4824
x2 = 0.8751 | 0.5067

C=Cc1ccccc1 + CCCCCCO
viscosity [mPa·s], 101.33 kPa
Conditions | x1 = 0.0998 | x1 = 0.2024 | x1 = 0.3078 | x1 = 0.4006 | x1 = 0.5007 | x1 = 0.5988 | x1 = 0.6993 | x1 = 0.7986 | x1 = 0.8985
298.15 K | 3.131 | 2.522 | 1.956 | 1.613 | 1.293 | 1.134 | 0.972 | 0.891 | 0.808
303.15 K | 2.773 | 2.177 | 1.703 | 1.446 | 1.154 | 1.051 | 0.89 | 0.84 | 0.747
308.15 K | 2.296 | 1.88 | 1.497 | 1.298 | 1.114 | 1.008 | 0.86 | 0.81 | 0.693

NCCOCCO + O
viscosity [mPa·s], 101.33 kPa
Conditions | 298.15 K | 313.15 K | 323.15 K
x1 = 0.0552 | 2.4 | 1.452 | 1.16
x1 = 0.1002 | 3.874 | 2.419 | 1.857
x1 = 0.1447 | 6.344 | 3.715 | 2.737
x1 = 0.2249 | 11.4 | 6.182 | 4.438
x1 = 0.2997 | 16.21 | 8.343 | 5.773
x1 = 0.3995 | 21.35 | 10.7 | 7.293
x1 = 0.5392 | 25.2 | 12.28 | 8.273
x1 = 0.6075 | 26.8 | 13.19 | 8.903
x1 = 0.7021 | 27.72 | 13.65 | 9.182
x1 = 0.8071 | 27.7 | 13.76 | 9.315
x1 = 0.9024 | 27.4 | 13.65 | 9.257

BrC(Br)Br + C1CCCCC1
viscosity [mPa·s]
Conditions | x1 = 0.1747 | x1 = 0.1851 | x1 = 0.3427 | x1 = 0.3428 | x1 = 0.5476 | x1 = 0.5486 | x1 = 0.6899 | x1 = 0.6911 | x1 = 0.8718 | x1 = 0.8747
298 K, 101.3 kPa | – | 0.959 | – | 1.071 | – | 1.258 | 1.409 | – | 1.67 | –
318 K, 101.33 kPa | 0.7236 | – | 0.82 | – | 0.9769 | – | – | 1.113 | – | 1.309

BrC(Br)Br + CCCCCC
298.15 K, 101 kPa
Conditions | viscosity [mPa·s]
x1 = 0.1058 | 0.3543
x1 = 0.2044 | 0.402
x1 = 0.2976 | 0.4904
x1 = 0.3989 | 0.5721
x1 = 0.5 | 0.6698
x1 = 0.6001 | 0.8212
x1 = 0.6743 | 0.9353
x1 = 0.8 | 1.217
x1 = 0.8948 | 1.475

BrC(Br)Br + C=Cc1ccccc1
viscosity [mPa·s], 101.33 kPa
Conditions | x2 = 0.1005 | x2 = 0.2006 | x2 = 0.2981 | x2 = 0.3985 | x2 = 0.506 | x2 = 0.6032 | x2 = 0.7008 | x2 = 0.7712 | x2 = 0.8948
298.15 K | 1.834 | 1.697 | 1.562 | 1.426 | 1.284 | 1.163 | 1.054 | 0.9849 | 0.8704
303.15 K | 1.714 | 1.586 | 1.462 | 1.332 | 1.198 | 1.084 | 0.9817 | 0.9179 | 0.8129
308.15 K | 1.603 | 1.481 | 1.361 | 1.24 | 1.117 | 1.01 | 0.9176 | 0.8595 | 0.762

CCCCCCCl + C1COCCO1
303.15 K, 101.3 kPa
Conditions | viscosity [mPa·s]
x2 = 0.1087 | 0.6686
x2 = 0.2953 | 0.7084
x2 = 0.5004 | 0.7719
x2 = 0.6974 | 0.8637
x2 = 0.9013 | 1.004
